EC50 data for 38 molecules are collected here from patent publication US11236055B2 (Venenum Biodesign, LLC, priority 2016, dated 2022).

The target in one assay is T1, human TGR5 receptor (Homo sapiens, UniProt Q8TDU6).
T1 construct: host or cells: CHO-K1 (hTGR5-CHO cells)
T1 sequence (Q8TDU6 1-330): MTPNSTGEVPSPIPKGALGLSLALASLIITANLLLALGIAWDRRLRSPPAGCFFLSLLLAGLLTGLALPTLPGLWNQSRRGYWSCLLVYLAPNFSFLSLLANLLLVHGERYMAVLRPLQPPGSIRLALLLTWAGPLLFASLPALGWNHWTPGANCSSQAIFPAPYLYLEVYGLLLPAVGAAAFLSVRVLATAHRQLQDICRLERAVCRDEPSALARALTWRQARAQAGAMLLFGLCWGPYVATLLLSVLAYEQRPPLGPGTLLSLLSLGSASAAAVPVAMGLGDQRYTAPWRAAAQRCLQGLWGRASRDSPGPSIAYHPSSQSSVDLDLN
Description: Human TGR5 cAMP production assay. Format: cell-based. Particulars: human TGR5, luminescent cAMP assay; coded A-D; read-out: Human TGR5 Lum. cAMP Activity (EC50). In a few lines:
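CHO-K1 cells stably expressing human TGR5, with IBMX and cAMP antibody, were exposed to half-log serially diluted compound for 1 h at room temperature. cAMP measured by enzyme-fragment complementation luminescence (XS+ kit) after overnight incubation; EC50 values reported.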
In general terms: Cyclic AMP is a second messenger, typically raised through Gs and lowered through Gi signalling.

A further assay deals with T2, mouse TGR5 receptor (Mus musculus, UniProt Q80SS6).
T2 construct: expressed in transfected cells; host or cells: HEK293-EBNA (293 c18, ATCC CRL10852), Hygromycin B selection
T2 sequence (Q80SS6 1-329): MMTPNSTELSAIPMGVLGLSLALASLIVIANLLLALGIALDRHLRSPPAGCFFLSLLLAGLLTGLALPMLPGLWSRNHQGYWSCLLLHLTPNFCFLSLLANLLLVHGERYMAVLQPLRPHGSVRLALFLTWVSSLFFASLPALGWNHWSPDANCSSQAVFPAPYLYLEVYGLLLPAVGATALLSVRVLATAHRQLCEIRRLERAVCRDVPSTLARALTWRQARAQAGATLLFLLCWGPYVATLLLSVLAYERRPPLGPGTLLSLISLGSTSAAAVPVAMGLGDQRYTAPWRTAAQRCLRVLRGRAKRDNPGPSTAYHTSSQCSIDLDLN
Kind of assay: Mouse TGR5 cAMP production assay (luminescent, DiscoveRx cAMP XS+). Format: cell-based. As to conditions: HEK293-EBNA cells overexpressing mouse TGR5, luminescent cAMP XS+; coded A-D; read-out: Mouse TGR5 Lum. cAMP Activity (EC50). The source says:
Mouse TGR5 cAMP Production Assay
We evaluated compounds of the present invention for their ability to induce cAMP production in HEK-EBNA cells overexpressing the mouse TGR5 receptor. Human embryonic kidney cells (HEK293-EBNA) stably expressing mouse TGR5 receptor were established using the following procedure. Specifically, a commercially-obtained gene encoding mouse TGR5 (accession number BC116914) from Thermo Scientific (Waltham, Mass.) was cloned into an episomal expression vector. The resulting expression plasmid was then transfected into 293 c18 (ATCC® CRL10852™) cells, which express the Epstein-Barr virus nuclear antigen EBNA1 and can support the replication of episomal vectors. Selection for the plasmid was maintained with Hygromycin B. Cells were cultured and maintained in DMEM (Sigma; cat #6429) supplemented with 10% Fetal Bovine Serum, 1% penicillin/streptomycin, 2 mM L-alanine L-glutamine (GlutaMax), and 250 μg/mL Hygromycin.
Two cAMP production assays were developed.
1. Luminescent cAMP Production Assay
In this first cAMP production assay, the cAMP production was measured using DiscoveRx's cAMP XS+ kit following the manufacturer's recommended protocol.
Briefly, HEK293-EBNA cells stably overexpressing mouse TGR5 were harvested using non-enzymatic cell dissociation buffer (Sigma-Aldrich, St. Louis, Mo.), spun down, then resuspended in serum-free DMEM with 500 μM IBMX at a density of 1.25×10^6 cells/mL. 500 μL of cAMP antibody solution was added to […] of cell suspension and incubated at room temperature for 20 min.
Test compounds were serially diluted (half-log dilutions) in DMSO and then further diluted 1:50 in PBS, 10 mM HEPES buffer. 2 μL of serially diluted compound was added to a 384-well low volume plate (Greiner cat #784075) and centrifuged briefly. 2 μL of the cell/cAMP antibody mixture was then added to each compound-containing well and allowed to incubate at room temperature for one (1) hour. Following incubation, the XS+ kits' ED/Lysis/CL Substrate Working Solution was prepared following the manufacturer's recommended protocol and 4 μL was added to each well of the plate. The plate was then incubated for one (1) hour at room temperature. Following incubation, 4 μL of (Enzyme Acceptor) EA reagent was added to the plate and allowed to incubate overnight at room temperature. Luminescent signal was then detected using the Viewlux instrument (Perkin-Elmer, Waltham, Mass.).
In Table 33, EC50 values for both human and mouse cells were determined according to the TGR5 cAMP assays described above.

One may read the EC50 as the concentration that produces a half-maximal response. Turning to `Cc1noc(C)c1-c1cccc(CNS(=O)(=O)c2cccc(C(F)(F)F)c2)c1` [Compound 1, N-(3-(3,5-dimethylisoxazol-4-yl)benzyl)-3-(trifluoromethyl)benzenesulfonamide], the concentration giving a half-maximal response (EC50) on human TGR5 receptor and at mouse TGR5 receptor was 1000 to 30000 nM in each case.
For `Cc1noc(C)c1-c1cccc(CNS(=O)(=O)c2ccc(C(F)(F)F)cc2)c1` [Compound 1AA], the EC50 was 1000 to 30000 nM at human TGR5 receptor and more than 30000 nM at mouse TGR5 receptor.
In the same order, the values of `Cc1noc(C)c1-c1cccc(CNS(=O)(=O)c2ccc(Cl)cc2)c1` [Compound 1AB] are 1000 to 30000 nM and more than 30000 nM.
As to `Cc1noc(C)c1-c1cccc(C(C)(C)NS(=O)(=O)c2cccc(C(F)(F)F)c2)c1` [Compound 1AC], the EC50 at human TGR5 receptor and on mouse TGR5 receptor was 1000 to 30000 nM each time.
On to `CC(C)(NS(=O)(=O)c1cccc(C(F)(F)F)c1)c1cccc(-c2ccncc2)c1` [Compound 1AD], for which the EC50 is less than 100 nM on human TGR5 receptor and 1000 to 30000 nM at mouse TGR5 receptor.
With `CC(C)(NS(=O)(=O)c1cccc(C(F)(F)F)c1)c1cccc(-c2ccncc2F)c1` [Compound 1AE], the EC50 at human TGR5 receptor was less than 100 nM; on mouse TGR5 receptor, 1000 to 30000 nM.
`CC(C)(NS(=O)(=O)c1cccc(C(F)(F)F)c1)c1cccc(-c2ccncc2Cl)c1` [Compound 1AF]: the EC50 at human TGR5 receptor and on mouse TGR5 receptor was 100 to 999 nM throughout.
On to `CC(C)(NS(=O)(=O)c1cccc(C(F)(F)F)c1)c1cccc(-c2ccnc(Cl)c2)c1` [Compound 1AG], for which the EC50 at human TGR5 receptor lay within 100 to 999 nM; on mouse TGR5 receptor it was 1000 to 30000 nM.
On to `CC(C)(NS(=O)(=O)c1cccc(C(F)(F)F)c1)c1cccc(-c2ccnc(C(F)(F)F)c2)c1` [Compound 1AH], for which the concentration giving a half-maximal response (EC50) at human TGR5 receptor is 1000 to 30000 nM; at mouse TGR5 receptor it was more than 30000 nM.
In the case of `COc1cnccc1-c1cccc(C(C)(C)NS(=O)(=O)c2cccc(C(F)(F)F)c2)c1` [Compound 1AI], the results for the concentration giving a half-maximal response (EC50) on human TGR5 receptor and on mouse TGR5 receptor were less than 100 nM and 100 to 999 nM, respectively.
Take `CC(C)(NS(=O)(=O)c1cccc(C(F)(F)F)c1)c1cccc(-c2ccnc3ccccc23)c1` [Compound 1AJ]: the EC50 on human TGR5 receptor and at mouse TGR5 receptor was 1000 to 30000 nM each time.
In the case of `Cc1cc(-c2cccc(C(C)(C)NS(=O)(=O)c3cccc(C(F)(F)F)c3)c2)ccn1` [Compound 1AK], the EC50 at human TGR5 receptor fell in the range of 100 to 999 nM; on mouse TGR5 receptor it was 1000 to 30000 nM.
Regarding `CC(C)(NS(=O)(=O)c1cccc(C(F)(F)F)c1)c1cccc(-c2ccnc(N)c2)c1` [Compound 1AL], the EC50 is 100 to 999 nM on human TGR5 receptor and 1000 to 30000 nM on mouse TGR5 receptor.
In the same order, the values of `CC(C)(NS(=O)(=O)c1cccc(C(F)(F)F)c1)c1cccc(-c2ccncc2O)c1` [Compound 1AN] are 100 to 999 nM and 1000 to 30000 nM.
Take `Cc1cncc(F)c1-c1cccc(C(C)(C)NS(=O)(=O)c2cccc(C(F)(F)F)c2)c1` [Compound 1AO]: the EC50 on human TGR5 receptor and on mouse TGR5 receptor was 1000 to 30000 nM each time.
Consider `O=S(=O)(NCc1cccc(-c2ccncc2F)c1)c1cccc(C(F)(F)F)c1` [Compound 1AP], for which the values for the EC50 at human TGR5 receptor and at mouse TGR5 receptor were 100 to 999 nM and 1000 to 30000 nM, respectively.
Take `O=S(=O)(NCc1cccc(-c2ccncc2Cl)c1)c1cccc(C(F)(F)F)c1` [Compound 1AQ]: the EC50 on human TGR5 receptor is 100 to 999 nM; on mouse TGR5 receptor, 1000 to 30000 nM.
With `O=S(=O)(NCc1cccc(-c2ccncc2)c1)c1cccc(C(F)(F)F)c1` [Compound 1AR], the 50% effective concentration (EC50) on human TGR5 receptor was 100 to 999 nM; on mouse TGR5 receptor it was 1000 to 30000 nM.
Consider `O=S(=O)(NCc1ccc(F)c(-c2ccncc2)c1)c1cccc(C(F)(F)F)c1` [Compound 1AS], for which the EC50 on human TGR5 receptor lay in the range of 100 to 999 nM; at mouse TGR5 receptor, 1000 to 30000 nM.
As to `O=S(=O)(NCc1ccc(F)c(-c2ccncc2Cl)c1)c1cccc(C(F)(F)F)c1` [Compound 1AT], the EC50 on human TGR5 receptor and on mouse TGR5 receptor was 1000 to 30000 nM in each case.
`O=S(=O)(NCc1cc(-c2ccncc2)ccc1F)c1cccc(C(F)(F)F)c1` [Compound 1AU]: the EC50 at human TGR5 receptor and at mouse TGR5 receptor was 1000 to 30000 nM throughout.
As to `O=S(=O)(NCc1cc(-c2ccncc2Cl)ccc1F)c1cccc(C(F)(F)F)c1` [Compound 1AV], the EC50 on human TGR5 receptor and on mouse TGR5 receptor was 1000 to 30000 nM in each case.
Regarding `C[C@H](NS(=O)(=O)c1cccc(C(F)(F)F)c1)c1cccc(-c2ccncc2)c1` [Compound 1AW], the EC50 was in the range of 100 to 999 nM on human TGR5 receptor and 1000 to 30000 nM at mouse TGR5 receptor.
`C[C@H](NS(=O)(=O)c1cccc(C(F)(F)F)c1)c1cccc(-c2ccncc2Cl)c1` [Compound 1AX]: the EC50 on human TGR5 receptor and at mouse TGR5 receptor was 100 to 999 nM throughout.
As for `C[C@H](NS(=O)(=O)c1cccc(C(F)(F)F)c1)c1cccc(-c2ccncc2F)c1` [Compound 1AY], the concentration for a half-maximal effect (EC50) on human TGR5 receptor was in the range of 100 to 999 nM; on mouse TGR5 receptor it was 1000 to 30000 nM.
With `COc1cnccc1-c1cccc([C@H](C)NS(=O)(=O)c2cccc(C(F)(F)F)c2)c1` [Compound 1AZ], the concentration for a half-maximal effect (EC50) is less than 100 nM on human TGR5 receptor and 1000 to 30000 nM on mouse TGR5 receptor.
For `C[C@@H](NS(=O)(=O)c1cccc(C(F)(F)F)c1)c1cccc(-c2ccncc2)c1` [Compound 1BB], the concentration giving a half-maximal response (EC50) at human TGR5 receptor was in the range of 100 to 999 nM; at mouse TGR5 receptor, 1000 to 30000 nM.
On to `C[C@@H](NS(=O)(=O)c1cccc(C(F)(F)F)c1)c1cccc(-c2ccncc2Cl)c1` [Compound 1BC], for which the concentration for a half-maximal effect (EC50) at human TGR5 receptor and at mouse TGR5 receptor was 100 to 999 nM each time.
As to `C[C@@H](NS(=O)(=O)c1cccc(C(F)(F)F)c1)c1cccc(-c2ccncc2F)c1` [Compound 1BD], the EC50 on human TGR5 receptor fell in the range of 100 to 999 nM; at mouse TGR5 receptor, 1000 to 30000 nM.
On to `COc1cnccc1-c1cccc([C@@H](C)NS(=O)(=O)c2cccc(C(F)(F)F)c2)c1` [Compound 1BE], for which the half-maximal effective concentration (EC50) on human TGR5 receptor and at mouse TGR5 receptor was 100 to 999 nM each time.
Turning to `Cc1cnccc1-c1cccc(CNS(=O)(=O)c2cccc(C(F)(F)F)c2)c1` [Compound 1BF], the concentration giving a half-maximal response (EC50) on human TGR5 receptor and at mouse TGR5 receptor was 100 to 999 nM in each case.
With `Nc1cnccc1-c1cccc(CNS(=O)(=O)c2cccc(C(F)(F)F)c2)c1` [Compound 1BG], the concentration for a half-maximal effect (EC50) at human TGR5 receptor lay in the range of 100 to 999 nM; at mouse TGR5 receptor it was 1000 to 30000 nM.
Consider `O=S(=O)(NCc1cccc(-c2ccncc2C(F)(F)F)c1)c1cccc(C(F)(F)F)c1` [Compound 1BH], for which the EC50 at human TGR5 receptor and on mouse TGR5 receptor was 1000 to 30000 nM throughout.
With `Cc1cc(-c2cccc(CNS(=O)(=O)c3cccc(C(F)(F)F)c3)c2)ncn1` [Compound 1BI], the half-maximal effective concentration (EC50) is 1000 to 30000 nM at human TGR5 receptor and more than 30000 nM on mouse TGR5 receptor.
The matching figures for `O=S(=O)(NCc1cccc(-c2cc(C(F)(F)F)ncn2)c1)c1cccc(C(F)(F)F)c1` [Compound 1BJ]: 1000 to 30000 nM and more than 30000 nM.
In the case of `O=S(=O)(NCc1cccc(-c2ccncn2)c1)c1cccc(C(F)(F)F)c1` [Compound 1BK], the 50% effective concentration (EC50) is 1000 to 30000 nM at human TGR5 receptor and more than 30000 nM on mouse TGR5 receptor.
As to `CC(C)(NS(=O)(=O)c1ccccc1C(F)(F)F)c1cccc(-c2ccncc2O)c1` [Compound 1BM], the EC50 on human TGR5 receptor was less than 100 nM; on mouse TGR5 receptor it was 100 to 999 nM.
Consider `COc1cnccc1-c1cccc(C2(NS(=O)(=O)c3cccc(C(F)(F)F)c3)CC2)c1` [Compound 1BN], for which the EC50 on human TGR5 receptor and on mouse TGR5 receptor was 100 to 999 nM throughout.
